Test results published in ChEMBL document CHEMBL1158879, “Preparation of 7-Alkoxylated Furanopyrones: Semisynthesis of ()-Etharvensin, a New Styryl-Lactone from Goniothalamus arvensis” (J Nat Prod, 1997).
The source made the active and inactive calls. The calls are words filed in the database; no cut-off is given here.

Legend:
Aorta [1] = assay: Inhibition of noradrenaline-induced contractile response in rat aorta at 100 uM in presence of calcium; assay type: functional, tissue-based
Aorta [2] = assay: Inhibition of noradrenaline-induced contractile response in rat aorta in absence of calcium; assay type: functional, tissue-based

Row | IC50 (Aorta [2]) [µM] | Compound | Activity (Aorta [1])
1 | – | CCO[C@@H]1CC(=O)O[C@H]2[C@H](O)[C@@H](c3ccccc3)O[C@H]21 | inactive
2 | 78 | O=C1C=C[C@@H]2O[C@H](c3ccccc3)[C@@H](O)[C@@H]2O1 [ALTHOLACTONE] | inactive
3 | 80 | O=C1CC[C@@H]2O[C@H](c3ccccc3)[C@@H](O)[C@@H]2O1 [GONIOTHARVENSIN] | inactive
